Assays:
[1] = target: T1, CeDcpS (C. elegans decapping scavenger enzyme) (Caenorhabditis elegans, UniProt G5EFS4); experiment: HPLC decapping assay with recombinant enzyme, hydrolysis rate V0 at […] substrate; assay type: biochemical
T1 sequence (G5EFS4 1-311): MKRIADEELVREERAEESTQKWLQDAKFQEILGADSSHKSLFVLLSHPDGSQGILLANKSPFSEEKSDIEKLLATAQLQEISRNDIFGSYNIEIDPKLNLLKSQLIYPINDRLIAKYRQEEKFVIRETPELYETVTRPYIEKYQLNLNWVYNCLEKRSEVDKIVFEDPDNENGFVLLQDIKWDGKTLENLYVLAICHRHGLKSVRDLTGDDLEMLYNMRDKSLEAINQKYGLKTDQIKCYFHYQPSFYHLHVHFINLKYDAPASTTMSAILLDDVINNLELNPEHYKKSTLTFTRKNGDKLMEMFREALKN

[2] = target: T2, hDcpS (human decapping scavenger enzyme) (Homo sapiens, UniProt Q96C86); experiment: as above; assay type: biochemical
[3] = target: T2, hDcpS (human decapping scavenger enzyme); experiment: intrinsic Trp fluorescence quenching titration, association constant Kas; assay type: binding
[4] = target: T1, CeDcpS (C. elegans decapping scavenger enzyme); experiment: as above; assay type: binding

T2 sequence (Q96C86 2-337): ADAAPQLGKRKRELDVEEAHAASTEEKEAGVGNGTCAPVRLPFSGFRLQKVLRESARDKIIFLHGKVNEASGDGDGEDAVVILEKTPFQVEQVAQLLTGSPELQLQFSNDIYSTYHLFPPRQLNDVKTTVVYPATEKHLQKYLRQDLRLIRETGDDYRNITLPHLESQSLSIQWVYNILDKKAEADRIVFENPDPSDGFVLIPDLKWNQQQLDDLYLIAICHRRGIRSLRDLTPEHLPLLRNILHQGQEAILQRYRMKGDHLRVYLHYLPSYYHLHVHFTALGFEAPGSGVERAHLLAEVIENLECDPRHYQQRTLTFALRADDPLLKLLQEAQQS

Row | Compound | CeDcpS [1] | hDcpS [2] | Kd [3] | Kd [4]
1 | C[n+]1cn([C@@H]2O[C@H](COP(=O)(O)OP(=O)(O)OP(=O)(O)OC[C@H]3O[C@@H](n4cnc5c(=O)[nH]c(N)nc54)[C@H](O)[C@@H]3O)[C@@H](O)[C@H]2O)c2nc(N)[nH]c(=O)c21 [m7GpppG, P1-(7-methylguanosin-5′-yl)-P3-guanosin-5′-yl triphosphate] | 1.83 ± 0.21 µM/min | 4.33 ± 0.23 µM/min |  | 
2 | CNc1nc2c(c(=O)[nH]1)[n+](C)cn2[C@@H]1O[C@H](COP(=O)(O)O)[C@@H](O)[C@H]1O [m2m7GMP] |  |  | 286 nM | 136 nM

From paper PMC6812366 (ACS Omega, 2019)
